Data: US8193333B2, “Cancer therapy using Bcl-Xl-specific siNA” (Centre Regional de Lutte Contre le Cancer-Centre Francois …, priority 2006, dated 2012)

How the values were obtained:
[1] = system: subcutaneous SKOV3 human ovarian carcinoma; experiment: Growth of subcutaneous SKOV3 tumours in nude mice; format: in vivo; conditions: 25 μg/kg intraperitoneally once a week, FIG. 16
Method: PEI/siRNA complexes were prepared in 5% glucose solution with a ratio of L-PEI nitrogen to siRNA phosphate of 5:1. Various amounts of siRNA (125, 625 or 2500 ng) and L-PEI were diluted separately, and PEI was then added to the siRNA. The solution was quickly homogenized and left for 15 min at room temperature. It was injected intraperitoneally in mice as a 0.5 ml 5% glucose solution.
SKOV3 cells (2×10^7/500 μL) were inoculated subcutaneously into the right flank of nude mice, and establishment of palpable tumours was determined. The tumour volume was calculated as v=L×l^2×p/6 where L and l represent the larger and the smaller tumour diameter measured twice week with digital caliper. When tumours reached an average volume of ˜100 mm^3 (on day 10), three experimental groups (three mice per group) were tested as follow: (a) untreated, (b) siXL1 naked (25 μg/kg), and (c) siXL1-PEI (25 μg/kg). The samples were diluted in 0.5 ml 0.9% NaCl solution (siRNA naked) or in 0.5 ml 5% glucose solution (siRNA-PEI) and injected intraperitoneally. This process was repeated once a week.

[2] = system: intraperitoneal SKOV3 human ovarian adenocarcinoma; experiment: Survival of nude mice bearing intraperitoneal SKOV3 tumours; format: in vivo, Swiss/nude mice
Method: 4-week-old female Swiss/nude mice were obtained from CHARLES-RIVER LABORATORIES and maintained in a pathogen-free environment. The mice were fed a standard laboratory diet and tap water ad libitum and kept a 23±1° C. with a 12 h light/dark cycle. Animal experiments in the present study were performed in compliance with the guidelines of the Federation of european laboratory animal science associations.
6-8 weeks old mice were implanted intraperitoneally with 2×10^7 ovarian adenocarcinoma SKOV3 cells. As described previously, this model reflects the i.p growth pattern of advanced ovarian cancer (Louis et al, Cancer Gene Therapy, 2006, 13, 367-374).
Twenty one days after tumour implantation, mice were allocated to one of the eight treatment groups (10 mice per group) summarized in Table II: • Group 1 comprised untreated animals. • Group 2 received intraperitoneal injection of 4 μg/kg cisplatin in 1 ml 0.9% NaCl solution. • Group 3 received intraperitoneal injection of 25 μg/kg control siRNA in 1 ml 0.9% NaCl. • Group 4 received intraperitoneal injection of 25 μg/kg Bcl-XL siRNA in 1 ml 0.9% NaCl. • Group 5 received intraperitoneal injection of 25 μg/kg control siRNA in 1 ml 0.9% NaCl and the following day 4 μg/kg of cisplatin in 1 ml 0.9% NaCl solution. • Group 6 received intraperitoneal injection of 4 μg/kg of cisplatin in 1 ml 0.9% NaCl solution and the following day 25 μg/kg control siRNA in 1 ml 0.9% NaCl. • Group 7 received intraperitoneal injection of 25 μg/kg Bcl-XL siRNA in 1 ml 0.9% NaCl and the following day 4 μg/kg of cisplatin in 1 ml 0.9% NaCl solution. • Group 8 received intraperitoneal injection of 4 μg/kg of cisplatin in 1 ml 0.9% NaCl solution and the following day 25 μg/kg Bcl-XL siRNA in 1 ml 0.9% NaCl.
The same treatment was repeated one month later. Mice were killed and autopsied when considered as moribund. Organs and tumours were formalin-fixed and paraffin-embedded for histological examination. At the end of the experiment, all surviving animals were sacrificed, and histological examination was performed in order to detect residual tumour nodes.

SKOV3 cells = experiment: Apoptosis induction in SKOV3 cells (cell and nuclear morphology after DAPI, caspase 3 activation and PARP cleavage by Western blot); format: cell-based, human
Method: Exponentially growing cells were exposed to CDDP for 2 hours at 37° C., in serum free medium. After exposure to the drug, the cell layers were rinsed and incubated in complete growth medium.
The siRNA duplexes were transfected according to the recommended procedure by using the Oligofectamine Reagent and Opti-MEM medium (INVITROGEN LIFE TECHNOLOGIES). 30-40% confluent cells were transfected in 25 cm^2 flasks with different concentrations of siXL1, siRNA Mcl-1 or siRNA control and incubated at 37° C., 5% CO2 for 4 hours. Next, 20% fetal bovin serum was added to reach a final concentration of 10% foetal bovin serum in the 25 cm^2 flask.
Cells were rinsed with ice cold PBS and lysed in 150 mM NaCl, 50 mM Tris-HCl pH 8, 1% Triton X100, 4 mM PMSF, 2 mM Aprotinin, 5 mM EDTA, 10 mM NaF, 10 mM NaPPi, 1 mM Na3VO4 for 30 min on ice. Lysates were clarified by centrifugation at 10000 g for 10 min at 4° C. and protein concentrations were determined using the Bradford assay (BIO-RAD). Equal amounts of total cellular protein (20 μg) were resolved in a Bis-tris-HCL buffered (pH 6.4) 4-12% polyacrylamide gel (NuPAGE® Novex® 4-12% Bis-tris gel, INVITROGEN) for 35 min at 200V and electrophoretically transferred on a PVDF membrane (MILLIPORE) for 75 min at 30V. The membrane was blocked for 1 hour at room temperature in T-TBS (132 mM NaCl, 20 mM Tris-HCl pH 7.6, 0.05% Tween 20) supplemented with 5% non-fat dry milk. The membrane was incubated for 1 hour at room temperature in T-TBS-milk with the following primary antibodies: anti-Bcl-XL/S (1:500, S18 SANTA-CRUZ BIOTECHNOLOGY), anti-PARP (1:1000, CELL-SIGNALING TECHNOLOGY), anti-caspase-3 (1:1000, BD BIOSCIENCES PHARMINGEN) anti-cleaved caspase-3 (1:1000, CELL-SIGNALING TECHNOLOGY), anti-alpha-tubulin (1:3000, SIGMA) and anti-Mcl-1 (1:750, S19 SANTA-CRUZ BIOTECHNOLOGY). After three washes with T-TBS, the membrane was incubated for 1 h at room temperature in T-TBS-milk with the adequate peroxidase conjugated secondary antibody (Anti-rabbit IgG, CELL-SIGNALING TECHNOLOGY, and anti-mouse IgG, AMERSHAM). After 3 washes with T-TBS and one with TBS, the immunoreactivity was detected by enhanced chemiluminescence (ECL kit, AMERSHAM).
After treatment, detached cells were collected separately and adherent cells were dissociated by trypsin/EDTA. Adherent and detached cells were then pooled and centrifuged at 1500×g for 5 min before being fixed in 70% ethanol. The cells were then collected on a polylysine-coated glass slide by cytocentrifugation, before a 30 min room temperature incubation in a 1 μg/ml DAPI aqueous solution (BOEHRINGER MANNHEIM). Slides were thereafter extensively washed in distilled water and mounted in Mowiol (CALBIO-CHEM).

For “siXL1: double-stranded siRNA blocking Bcl-XL expression; sense 5′-auuggugagucggaucgcatt-3′ (SEQ ID NO: 5), anti-sense 5′-ugcgauccgacucaccaautt-3′ (SEQ ID NO: 6) (sense AUUGGUGAGUCGGAUCGCATT; antisense UGCGAUCCGACUCACCAAUTT; chemistry not given here)”, the “effect on subcutaneous tumor growth” value [1] was “almost no effect”, the “mice that die in the same interval as the control mice” value ([2]; group treated with siXL1) was 50% and the “mice with no residual tumors at autopsy after 150 days” value ([2]; group treated with siXL1) was 50%. The “duration of complete regression of the pre-established tumor after tumor cells implantation” value ([2]; low dose, mice implanted with human chemoresistant tumor cells) was “at least 5 months”, the “survival at 130 days” value ([2]; naked siRNA 25 μg/kg intraperitoneal, 2 injections at 28 days interval, FIG. 15) was 60% and the “effect on mice survival” value ([2]; siRNA 25 μg/kg, cisplatin 4 μg/kg intraperitoneal, treatment repeated one month later, FIG. 15) was “increases considerably”. The “caspase 3 activation and PARP cleavage after 24 h exposure to cisplatin” value (SKOV3 cells; 24 h, combination with 20 μg/ml cisplatin) was “detectable”, the “apoptosis induction (cellular and nuclear morphology, caspase 3 cleavage)” value (SKOV3 cells; 72 h after transfection, FIG. 5) was “moderate apoptosis” and the “apoptosis / cell death (nuclear fragmentation and condensation, morphology, pre-G1 peak)” value (SKOV3 cells; alone 150 nM or in combination 75 nM each, FIGS. 13 and 14) was “moderate apoptosis”.
